# Like-named read-outs stand apart in the source and are kept apart here.
# Experiments:
# [1] = system: acid secretion induced by pentagastrin; experiment: Activity against gastric secretion stimulated with pentagastrin in the anaesthetized rat; type: in vivo; settings: for ED50: iv, anaesthetized rat, pentagastrin 30 mcg/kg/h, I.V. bolus, read-out: Antagonistic activity (ID50) towards acid secretion induced by pentagastrin
# Method: The investigation of the activity against gastric secretion performed by the compounds of the invention by means of an antigastrin mechanism was carried out in vivo in anaesthetized rats with the use of male animals weighing about 200 g. Gastric secretion was stimulated with pentagastrin and the method of K. S. Lai [Gut 5, (1964), 327-341] was used, slightly modified.
# After tracheotomy, the oesophagus and duodenum were cannulated. Perfusion was carried out with a tepid solution (37° C.) of 0.25 mM NaOH which was passed through the stomach by means of a peristaltic pump at a constant flow rate of 1 ml/minute. After stabilization for 20 minutes, the stimulant, dissolved in a physiological solution, was perfused for 120 minutes at a dose of 30 mcg/kg/h in a volume of 0.95 ml/hour. After perfusion for 60 minutes (the basal simulation), the product under test was administered intravenously (I.V.) as a bolus and the perfusion of the stimulant was continued for a further 60 minutes. The acid secretion was recorded continuously as a function of time.
# The activity of the product was evaluated as the percentage reduction in the secreted acidity after the administration of the product compared with the basal acidity measured during the first 60 minutes of collection in the presence of pentagastrin alone.
# [2] = biological target: T1, central CCK-B receptors (guinea pig cortical membrane) (Cavia porcellus, UniProt H0VZC5); experiment: Inhibition of binding of (3-H)[N-methyl-N-leucine]CCK-8 to guinea pig cortical membranes (anti-CCK-B); settings: for IC50: IC50, inhibition of binding of (3-H)[N-methyl-N-leucine]CCK-8 to the guinea pig cortical membrane, 150 minutes at 25° C.
# T1 construct: Cerebral cortices of white male guinea pigs were therefore used; from tissue; host or cells: guinea pig cerebral cortex membranes
# T1 sequence (H0VZC5 1-426): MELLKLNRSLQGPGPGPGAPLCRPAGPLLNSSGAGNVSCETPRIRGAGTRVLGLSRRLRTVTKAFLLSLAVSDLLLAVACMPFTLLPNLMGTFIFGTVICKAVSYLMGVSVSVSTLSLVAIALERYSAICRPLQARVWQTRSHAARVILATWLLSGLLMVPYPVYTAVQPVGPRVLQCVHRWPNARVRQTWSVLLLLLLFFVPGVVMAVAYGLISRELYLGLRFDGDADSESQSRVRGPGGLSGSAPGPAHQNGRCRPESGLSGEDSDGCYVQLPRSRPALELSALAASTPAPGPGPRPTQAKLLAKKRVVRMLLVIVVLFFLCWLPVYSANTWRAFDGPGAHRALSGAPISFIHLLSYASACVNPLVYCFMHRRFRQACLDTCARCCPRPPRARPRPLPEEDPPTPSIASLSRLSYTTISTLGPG
# Method: Cerebral cortices of white male guinea pigs were therefore used, according to the method mentioned above, so as to obtain a membrane content/ml corresponding to about 300 mcg of proteins/mi. The membranes were incubated together with the radioactive tracer and the compounds under test for 150 minutes at 25° C. After the supernatant liquid had been discarded, the radioactivity associated with the pellet was determined with a liquid scintillator.
# CCK-B receptors = settings: guinea-pig; cited from earlier work
# guinea-pig ureters = experiment: Antispastic activity in vitro: spontaneous motility of guinea-pig ureters; settings: Cavia porcellus, five minutes contact, 37° C.
# From the text: The isotonic contractions were detected by means of a force transducer and recorded. […] A given concentration of the product under test was then introduced into the bath and left in contact with the prepared specimen for five minutes, after which the ureter was washed until its own spontaneous activity was re-established.
# [3] = biological target: T2, cholecystokinin receptors of the pancreatic cells of the rat (CCK-A) (Rattus norvegicus, UniProt P30551); experiment: Inhibition of the binding of [125-I]-[Bolton-Hunter]-CCK-8 to rat pancreatic cells (anti-CCK-A); settings: rat pancreatic cells
# T2 construct: The pancreatic cells of the rat were prepared as described by Makovec et al; from tissue; host or cells: rat pancreatic cells
# T2 sequence (P30551 1-444): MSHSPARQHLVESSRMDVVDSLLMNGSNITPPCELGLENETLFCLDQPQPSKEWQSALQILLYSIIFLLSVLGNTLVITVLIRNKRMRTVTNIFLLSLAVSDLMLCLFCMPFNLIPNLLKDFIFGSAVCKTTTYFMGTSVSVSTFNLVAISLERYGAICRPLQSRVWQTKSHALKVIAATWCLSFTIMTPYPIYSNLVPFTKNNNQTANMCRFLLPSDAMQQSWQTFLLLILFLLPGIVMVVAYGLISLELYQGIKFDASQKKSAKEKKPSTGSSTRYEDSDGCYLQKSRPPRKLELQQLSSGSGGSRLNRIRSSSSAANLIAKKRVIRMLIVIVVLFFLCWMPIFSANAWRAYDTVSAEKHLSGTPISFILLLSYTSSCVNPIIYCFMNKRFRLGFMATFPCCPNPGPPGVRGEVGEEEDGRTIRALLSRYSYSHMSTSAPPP
# Method: The pancreatic cells of the rat were prepared as described by Makovec et al. (reference cited) so as to produce about 5×10^6 cells/mi. The cells were then incubated together with the radioactive tracer and the compounds under test for 30 minutes at 37° C.
# After the supernatant liquid had been discarded, the radioactivity associated with the pellet was determined with a gamma counter (80% efficiency).
# mouse = experiment: Anxiolytic activity in the mouse, Black and White Box test; type: in vivo; settings: for TOTAL MOV.: five minutes
# Method: In order to confirm the hypothesis that the potent activity of some of the compounds of the invention against central CCK-B may be correlated with a possible anxiolytic activity, this potential activity was evaluated in the mouse with the use of the "Black and White Box test". This experimental model, which was carried out according to Costall et al. [Pharm. Biochem. Behav. 32 (1989), 777-785] used a box with dimensions of 45×21×21 (h) cm. divided into two compartments which communicated with each other by means of a 13×5 cm hole. The smaller compartment (1/3 of the total area) had black walls, whereas the larger had transparent walls and was illuminated by a lamp which was placed 20 cm above the box and supplied light at 20 W. Under the floor was an activity meter which registered the movements performed by the animal in the individual compartments. The experiment was started by placing the animal in the centre of the illuminated box; as well at its movements, the time which the animal spent in the dark and in the light and the number of times it moved between the 2 compartments were recorded for five minutes. In general, a control animal tended preferably to stay in the dark compartment where it felt better protected from an unusual enviromental situation which put it in a state of anxiety. In this experimental model ( see the reference cited above), a compound having anxiolytic activity decreased the % of movements into the dark in comparison with the total movements, increased the movements between the two light-dark compartments, and increased the % of the total time time spent in the light. The results obtained are given in Table 5 below in which the activities obtained with the compound 1 (the rectus series ) and its enantiomer 2 (sinister) tested in comparison with diazepam and the CCK-B antagonist L365-260.
compound,measurement,setting,value
CN1CCN(C(=O)C[C@@H](NC(=O)c2cc(Cl)cc(Cl)c2)C(=O)N2CCC3(CCCC3)CC2)CC1 [Compound 70],ED50,[1],18.9 mg/kg
"CCCCCN(CCCCC)C(=O)C(CCC(=O)O)NC(=O)c1ccc(Cl)c(Cl)c1 (stereo not drawn) [lorglumide, reference compound]",antigastrin activity (in words),"[1]; rat, up to a dose of 100 mg/kg",completely inactive
"CCCN(CCC)C(=O)C(CCC(=O)O)NC(=O)c1ccccc1 (stereo not drawn) [proglumide, reference compound]",ED50,[1],500 mg/kg
CN1CCN(C(=O)CC[C@@H](NC(=O)c2cccc(Cl)c2)C(=O)NCCC(C)(C)C)CC1 [Compound 23],ED50,[1],25 mg/kg
same,IC50,[2],> 100 µM
non-sulphated [3-H][N-methyl-N-leucine]CCK-8,"affinity for the receptors of the cortex (CCK-B), times greater than for those of the pancreas (CCK-A)",CCK-B receptors,about 4000 times
CN1CCN(C(=O)CC[C@@H](NC(=O)c2cc(Cl)cc(Cl)c2)C(=O)N2CCC3(CCCC3)CC2)CC1 [Compound 1],ED50,[1],9 mg/kg
same,"activity times higher than that of its S enantiomer, compound 2","[1]; rat, pentagastrin-induced acid secretion",about three
same,"times more active than CR 2194, calculated on a molar basis","[1]; rat, pentagastrin-induced acid secretion, molar basis",about 1.5 times
same,times more active than CR 2194,"[1]; rat, pentagastrin-induced acid secretion, weight basis",about 1.2 times
same,IC50,"guinea-pig ureters; force of the contractions, read-out: IC50 (force), inhibition of the spontaneous motility of guinea-pig ureters in vitro",23 µg/mL
same,IC50,"guinea-pig ureters; frequency of the contractions, read-out: IC50 (frequency), inhibition of the spontaneous motility of guinea-pig ureters in vitro",29 µg/mL
same,activity relative to its acidic parent compound CR 2194 (CCK-A binding),[3],about twice
same,LIGHT TIME (%) TOTAL TIME,mouse; 0.01 mg/kg IP,32.3%
same,LIGHT TIME (%) TOTAL TIME: % EFF.VS CONTROL,mouse; 0.01 mg/kg IP,17%
same,LIGHT-DARK MOVEMENTS,mouse; 0.01 mg/kg IP,13.2
same,LIGHT-DARK MOVEMENTS: % EFF. VS CONTROL,mouse; 0.01 mg/kg IP,3%
same,MOV. DARK (%) TOTAL MOV.,mouse; 0.01 mg/kg IP,50%
same,MOV. DARK (%) TOTAL MOV.: % EFF. VS CONTROL,mouse; 0.01 mg/kg IP,0%
same,TOTAL MOV.,mouse; 0.01 mg/kg IP,478
same,LIGHT TIME (%) TOTAL TIME,mouse; 0.1 mg/kg IP,35.4%
same,LIGHT TIME (%) TOTAL TIME: % EFF.VS CONTROL,mouse; 0.1 mg/kg IP,28%
same,LIGHT-DARK MOVEMENTS,mouse; 0.1 mg/kg IP,15.0
same,LIGHT-DARK MOVEMENTS: % EFF. VS CONTROL,mouse; 0.1 mg/kg IP,17%
same,MOV. DARK (%) TOTAL MOV.,mouse; 0.1 mg/kg IP,47%
same,MOV. DARK (%) TOTAL MOV.: % EFF. VS CONTROL,mouse; 0.1 mg/kg IP,-5%
same,TOTAL MOV.,mouse; 0.1 mg/kg IP,461
same,LIGHT TIME (%) TOTAL TIME,mouse; 1 mg/kg IP,30.5%
same,LIGHT TIME (%) TOTAL TIME: % EFF.VS CONTROL,mouse; 1 mg/kg IP,10%
same,LIGHT-DARK MOVEMENTS,mouse; 1 mg/kg IP,12.9
same,LIGHT-DARK MOVEMENTS: % EFF. VS CONTROL,mouse; 1 mg/kg IP,0%
same,MOV. DARK (%) TOTAL MOV.,mouse; 1 mg/kg IP,45%
same,MOV. DARK (%) TOTAL MOV.: % EFF. VS CONTROL,mouse; 1 mg/kg IP,-9%
same,TOTAL MOV.,mouse; 1 mg/kg IP,471
same,anxiolytic activity in the Black and White Box test (in words),mouse; IP,active for all the parameters tested
same,dose at which the compound is most active,mouse; bell-shaped curve,0.1 mg/kg (I.P.)
same,IC50,[2],0.7 µM
same,times less active than pentagastrin (CCK-B binding),[2]; guinea-pig cortical membranes,about 200 times
same,times more potent than the CCK-A antagonist R-lorglumide (CCK-B binding),[2]; guinea-pig cortical membranes,about 10 times
same,times more potent than the gastrin antagonist CR 2194 (CCK-B binding),[2]; guinea-pig cortical membranes,about 3 times
"CCCCCN(CCCCC)C(=O)[C@@H](CCC(=O)O)NC(=O)c1ccc(Cl)c(Cl)c1 [R-lorglumide, reference compound]",times more active than the compound 59 (CCK-A binding),[3],about 25 times
same,IC50,[2],9.2 µM
